Assays:
[1] = target: T1, bFGF (Homo sapiens, UniProt P09038); experiment: Evaluation of bFGF stabilization in ReproFF2 medium (ELISA); format: biochemical; settings: 37° C. for 7 days
T1 construct: purchased Lonza (via TAKARA BIO INC.) Ser. No. 00/190,632
Description: A commercially available measurement kit (human bFGF ELISA kit, ELH-bFGF-001, Ray Biotech) was used for quantification of bFGF in the medium. The measurement procedures followed the protocol attached to the kit. The bFGF concentration of the serum-free medium was calculated from the analytical curve (conversion formula) drawn from the absorbance of an analytical curve standard solution. The evaluation criteria of Tables 5-8 are as follows:
A test compound was dissolved in phosphate buffered saline, and diluted 10-fold with a serum-free medium to adjust the concentration shown in Table 4 (test sample). The test sample was left standing in a tightly sealed Falcon tube at 37° C. for 7 days, and the bFGF concentration was quantified by ELISA measurement. A phosphate buffered saline without a test compound was diluted 10-fold with Essential 8 medium or ReproFF2 medium, and left standing at 37° C. or 4° C. for 7 days, and used as a control.
A commercially available measurement kit (human bFGF ELISA kit, ELH-bFGF-001, Ray Biotech) was used for quantification of bFGF in the medium. The measurement procedures followed the protocol attached to the kit. The bFGF concentration of the serum-free medium was calculated from the analytical curve (conversion formula) drawn from the absorbance of an analytical curve standard solution. The evaluation criteria of Table 13 are as follows:
A test compound was dissolved in phosphate buffered saline, and diluted 10-fold with a serum-free medium to adjust the concentration shown in Table 12 (test sample). The test sample was left standing in a tightly sealed Falcon tube at 37° C. for 7 days, and the bFGF concentration was quantified by ELISA measurement. A phosphate buffered saline without a test compound was diluted 10-fold with Essential 8 medium or ReproFF2 medium, and left standing at 37° C. or 4° C. for 7 days, and used as a control.

[2] = target: T1, bFGF; experiment: Evaluation of bFGF stabilization in Essential 8 medium (ELISA); format: biochemical; settings: 37° C. for 7 days
In short: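 Test compound in PBS diluted 10-fold into serum-free medium (Essential 8 or ReproFF2), held sealed at 37° C for 7 days; remaining bFGF quantified by ELISA against a standard curve. Controls: PBS without compound diluted into each medium, held 7 days at 37° C or 4° C.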

[3] = Measurement of content level of sulfur in test compound (ICP); format: physicochemical
In short: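 Sulfur content was measured by ICP emission spectrometry on samples containing 0.01 wt % test compound. Values came from a calibration curve of sulfur standards at 0, 1, 10, 30 and 50 ppm.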

[4] = target: T1, bFGF; experiment: Evaluation of bFGF stabilization in Lonza serum-free medium (ELISA); format: biochemical
In short: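 Compound in PBS diluted 10-fold into serum-free medium and held sealed at 37 °C for 7 days (some sets 3 days). Remaining bFGF quantified by human bFGF sandwich ELISA against a standard curve. Controls were compound-free PBS-medium kept at 37 °C or 4 °C for the same period.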

[5] = tested on: Human bone marrow-derived mesenchymal stem cells; experiment: Mesenchymal stem cell proliferation system (cell number by DNA quantification); settings: growth of mesenchymal stem cell, control ratio
[6] = compound used in the Examples, stated in the description

T1 sequence (P09038 143-288): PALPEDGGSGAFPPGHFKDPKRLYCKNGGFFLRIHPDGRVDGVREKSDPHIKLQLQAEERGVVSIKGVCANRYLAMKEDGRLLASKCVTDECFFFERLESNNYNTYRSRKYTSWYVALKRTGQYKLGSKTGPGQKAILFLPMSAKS

O=S(=O)([O-])OC[C@H]1O[C@@](COS(=O)(=O)[O-])(O[C@H]2O[C@H](COS(=O)(=O)[O-])[C@@H](OS(=O)(=O)[O-])[C@H](OS(=O)(=O)[O-])[C@H]2OS(=O)(=O)[O-])[C@@H](OS(=O)(=O)[O-])[C@@H]1OS(=O)(=O)[O-].[K+].[K+].[K+].[K+].[K+].[K+].[K+].[K+] [sucrose 8SO3K]
concentration showing a suppressive effect on a decrease in the bFGF concentration of the medium [1]: not less than 250 pg/ml | bFGF concentration relative to that of 4° C. control (ELISA) ([1]; test compound 250 pg/ml): − (bFGF concentration was not less than 10% and less than 30% relative to that of 4 °C control) | bFGF concentration relative to that of 4° C. control (ELISA) ([1]; test compound 25 ng/ml): +++ (bFGF concentration was not less than 70% relative to that of 4 °C control) | bFGF concentration relative to that of 4° C. control (ELISA) ([1]; test compound 250 ng/ml): +++ (bFGF concentration was not less than 70% relative to that of 4 °C control) | bFGF concentration relative to that of 4° C. control (ELISA) ([1]; test compound 25 μg/ml): ++ (bFGF concentration was not less than 50% and less than 70% relative to that of 4 °C control) | bFGF concentration relative to that of 4° C. control (ELISA) ([1]; test compound 250 μg/ml): +++ (bFGF concentration was not less than 70% relative to that of 4 °C control) | concentration showing a suppressive effect on a decrease in the bFGF concentration of the medium [2]: not less than 2.5 μg/ml | bFGF concentration relative to that of 4° C. control (ELISA) ([2]; test compound 250 pg/ml): x (bFGF concentration was less than 10% relative to that of 4 °C control) | bFGF concentration relative to that of 4° C. control (ELISA) ([2]; test compound 25 ng/ml): x (bFGF concentration was less than 10% relative to that of 4 °C control) | bFGF concentration relative to that of 4° C. control (ELISA) ([2]; test compound 250 ng/ml): x (bFGF concentration was less than 10% relative to that of 4 °C control) | bFGF concentration relative to that of 4° C. control (ELISA) ([2]; test compound 25 μg/ml): +++ (bFGF concentration was not less than 70% relative to that of 4 °C control) | bFGF concentration relative to that of 4° C. control (ELISA) ([2]; test compound 250 μg/ml): +++ (bFGF concentration was not less than 70% relative to that of 4 °C control) | sulfur content Found (inorganic analysis) ([3]; ICPS-8100, evaluation samples containing 0.01 wt % test compound): 17 wt % | sulfate group / sulfo group content level [3, 6]: 48.8 wt % | sulfur content (content level of sulfur) [3, 6]: 19.5 wt % | concentration showing a suppressive effect on a decrease in the bFGF concentration in the medium ([4]; Lonza serum-free medium, 37° C. for 3 days): not less than 250 ng/ml | bFGF concentration relative to that of 4° C. control (ELISA) ([4]; Lonza serum-free medium, 37° C. for 3 days, test compound 25 ng/ml): x (bFGF concentration was less than 10% relative to that of 4 °C control) | bFGF concentration relative to that of 4° C. control (ELISA) ([4]; Lonza serum-free medium, 37° C. for 3 days, test compound 250 ng/ml): − (bFGF concentration was not less than 10% and less than 30% relative to that of 4 °C control) | bFGF concentration relative to that of 4° C. control (ELISA) ([4]; Lonza serum-free medium, 37° C. for 3 days, test compound 25 μg/ml): +++ (bFGF concentration was not less than 70% relative to that of 4 °C control) | bFGF concentration relative to that of 4° C. control (ELISA) ([4]; Lonza serum-free medium, 37° C. for 3 days, test compound 250 μg/ml): +++ (bFGF concentration was not less than 70% relative to that of 4 °C control) | bFGF concentration relative to that of 4° C. control (ELISA) ([4]; Lonza serum-free medium, 37° C. for 7 days, test compound 25 ng/ml): x (bFGF concentration was less than 10% relative to that of 4 °C control) | bFGF concentration relative to that of 4° C. control (ELISA) ([4]; Lonza serum-free medium, 37° C. for 7 days, test compound 250 ng/ml): x (bFGF concentration was less than 10% relative to that of 4 °C control) | bFGF concentration relative to that of 4° C. control (ELISA) ([4]; Lonza serum-free medium, 37° C. for 7 days, test compound 25 μg/ml): − (bFGF concentration was not less than 10% and less than 30% relative to that of 4 °C control) | bFGF concentration relative to that of 4° C. control (ELISA) ([4]; Lonza serum-free medium, 37° C. for 7 days, test compound 250 μg/ml): + (bFGF concentration was not less than 30% and less than 50% relative to that of 4 °C control) | effectiveness ELISA ([4]; effectiveness in ELISA evaluation of mesenchymal stem cells (medium), 4° C. control ratio): + (+ 30%<) | effectiveness cells [5]: ⊚ (⊚ not less than 120%)

From patent US10689622B2, “Culture medium for proliferating stem cell, which contains sulfated compound” (AJINOMOTO CO., INC., priority 2012, dated 2020)
